Data from US8680042B2, “Methods of treating sickle cell anemia-related conditions with MK-801 or memantine” (Universität Zürich Prorektorat MNW, priority 2009, dated 2014).

Biological target: T1, NMDA receptor in erythrocytes (Homo sapiens, UniProt Q05586)
T1 construct: Potassium and calcium fluxes through the NMDA receptor in erythrocytes of healthy donors (C) and patients with sickle cell anemia; endogenous in cells; host or cells: freshly isolated human erythrocytes (HbSS patients and healthy donors)
Assay: Unidirectional K+ (86Rb) and Ca2+ (45Ca) fluxes via the cation channel of the NMDA receptor, radioactive tracer kinetics
Assay type: cell-based
Conditions: for NMDA- and PGE2-sensitive increase in fluxes: stimulated by NMDA (100 μM) or prostaglandine E2 (2 μM), blocker added
Method: FIGS. 2A and 2B: Potassium and calcium fluxes through the NMDA receptor in erythrocytes of healthy donors (C) and patients with sickle cell anemia (H). 2A: Unidirectional K^+ influx measured in chloride-free Na-methane sulfate medium in the presence of 100 μM ouabain, the inhibitor of […]. Conditions corresponding to the numbers at the X axis: (1) control; (2) 50 μM memantine chloride (Sigma-Aldhdge); (3) 100 μM NMDA; (4) NMDA+memantine chloride; (5) 2 μM prostaglandine E2 (PGE2); (6) PGE2+memantine chloride. * denotes p<0.05 compared to the corresponding values in healthy donor's erythrocytes, # stands for p<0.05 compared to the corresponding non-treated control. Data are means±SEM for 6-7 individuals. 2B: Unidirectional Ca^2+ influx in erythrocytes of a single HbSS patient measured on 3 different occasions and in three healthy donors. Conditions indicated in numbers at the X axis are: (1) non-treated control; (2) 100 μM NMDA; (3) 100 μM NMDA and 50 μM MK-801. * denotes p<0.05 compared to the corresponding healthy donors' samples.
The following experiments were conducted using fresh-isolated human erythrocytes of HbSS patients and healthy subjects.
Fluxes via the nonselective cation channel of the NMDA receptor were assessed using radioactive tracer kinetics. 86Rb was used as a radioactive tracer for K^+ and 45Ca as a tracer for Ca^2+. Fluxes through the red cell membrane were measures in the medium containing (mM) 145 Na-methane sulfate, 4 K-gluconate, 1 Ca-gluconate, 10 sucrose, 10 glucose and 10 HEPES-Tris (pH 7.4) in the presence of 100 μM L-arginine and 100 μM ouabain. Details of the flux measurement may be found elsewhere (e.g. Bogdanova et al., J Membr Biol. 2003; 195(1):33-42).

C[C@]12N[C@H](Cc3ccccc31)c1ccccc12 [MK-801, Dizocilpine] was tested, and the “NMDA- and PGE2-sensitive increase in fluxes” value was “could be blocked”.

In the case of CN[C@H](CC(=O)O)C(=O)O [NMDA, N-methyl D-aspartate], the “Fluxes of both cations (K+ and Ca2+)” value (agonist 100 μM) is reported as “further stimulated”.

With CC12CC3CC(C)(C1)CC(N)(C3)C2 [memantine, Memantine] the “NMDA- and PGE2-sensitive increase in fluxes” value was “could be blocked”.

CCCCC[C@H](O)/C=C/[C@H]1[C@H](O)CC(=O)[C@@H]1C/C=C\CCCC(=O)O [prostaglandine E2] was tested, and the “Fluxes of both cations (K+ and Ca2+)” value (agonist 2 μM) was “further stimulated”.
